From EP0409382A1, “Glutamic acid derivatives” (THE WELLCOME FOUNDATION LIMITED, priority 1989, dated 1991) come the findings set out here.

This assay concerns MCF-7 breast adenocarcinoma. As to the kind of experiment: Cell culture cytotoxicity assay (MTT dye reduction), inhibition of cell growth. Type of assay: cell-based, Human. To be noted: for IC50: MCF7, Anti-tumour Activity Human Breast Adenocarcinoma Cells, MCF-7, 72 hours incubation, medium with 10 nM calcium leucovorin as folate source, read-out: IC₅₀; for inhibiting the growth of MCF-7 cells: 72 hours, MTT dye reduction, result in words. On the procedure: Cells and Medium: MCF-7 breast adenocarcinoma, obtained from the American Type Culture Collection (ATCC) are grown in RPMI 1640 medium supplemented with 10 nM calcium leucovorin instead of folic acid as the folate source; 10% dialyzed fetal calf serum, penicillin, streptomycin and sodium pyruvate (110 µg/ml).
Cytotoxicity Assay: Cells are seeded into 96 well plates using a Perkin Elmer Pro/pette. MCF-7 cells are seeded at 15,000 cells per well in 150 µl of medium and each concentration was assayed in triplicate. Cultures were incubated for 72 hours in a 37^o humidified incubator at5% CO₂. Inhibition of cell growth was measured using the MTT dye reduction assay.
MTT Dye Reduction Assay: Cell dilutions for a standard curve were prepared from a 72 hour log-phase culture. Serial dilutions were seeded in triplicate in 96 well plates and incubated at 37 for 1 hour. MTT (3-(4,5-dimethylthiazol-2-yl)-2,5-diphenyltetrazolium bromide) was dissolved in phosphate buffered saline at 5 mg/ml and sonicated for 30 seconds. Using the Perkin Elmer Pro/pipette, […] of medium was removed and 100 µl of MTT added to the wells of the standard curve and test plates. Suspension cultures were spun for 5 minutes at 1000 rpm before removing medium from the wells. Plates were incubated for 1 hour at 37^o on a platform shaker. Following this incubation, 100 µl of medium was removed from the wells and 100 µl of dimethylsulphoxide added to each well. The plates were sonicated for approximately 10 seconds to solubilize the precipitated formazan dye. The absorbance of each well was measured using a Titertek Multiskan MC microtiter plate reader at 570 nm with a reference wavelength of 750 nm.
On the technique in general: Formazan colour is commonly taken as a measure of viable cells.

For the compound `Nc1nc(N)c(CCCSc2ccc(C(=O)N[C@@H](CCC(=O)O)C(=O)O)cc2)c(=O)[nH]1` [Example 1F, N-[4-[[3-(2,4-Diamino-1,6-dihydro-6-oxo-5-pyrimidinyl)propyl]thio]benzoyl]-L-glutamic acid], the IC50 is 23 nM and the “inhibiting the growth of MCF-7 cells” value is on record as “active”.
Taken in the same sequence, the figures for `Nc1nc(N)c(CCCOc2ccc(C(=O)N[C@@H](CCC(=O)O)C(=O)O)cc2)c(=O)[nH]1` [Example 2E, N-[4-[3-(2,4-Diamino-1,6-dihydro-6-oxo-5-pyrimidinyl)propoxy]benzoyl]-L-glutamic acid] were 85 nM and “active”.
